Data published in PMC9866191, “Novel 9-Benzylaminoacridine Derivatives as Dual Inhibitors of Phosphodiesterase 5 and Topoisomerase II for the Treatment of Colon Cancer” (Molecules, 2023).

Experiments:
PDE5 = system: PDE5; parameters: method as in PMID 29656464; details: Figure 1; cited from earlier work
PDE5A = molecular target: T1, PDE5A (Homo sapiens, UniProt O76074); test: Phosphodiesterase 5 HTRF cGMP assay; type: biochemical
T1 construct: purchased BPS Bioscience, San Diego, CA, USA
Experimental: All the synthesized acridine derivatives were tested for their in vitro ability to inhibit PDE5A at a screening dose of 10 µM.
The enzyme activities of phosphodiesterase 5 (PDE5) were measured using an HTRF cGMP assay kit (Cisbio, Codolet, France). […] Afterward, the HTRF reagent (cGMP-d2 and anti-cGMP-cryptate) was added for 1 h at 25 °C, and PDE activity was assayed on an HTRF reader (Tecan Infinite F200 Pro).

HCT-116 = test: MTT cell proliferation assay, HCT-116; details: for % Inhibition at 10 µM: 72 h MTT, means ± SD
Experimental: (§1) In the MTT assay, 96-well culture plates were used. A total of 7 × 10^4 cells per well were seeded, and test materials were added to the cells at various concentrations [47, 48]. Human cancer and non-cancer cell lines were purchased commercially from the American Type Culture Collection (ATCC). After 72 h, the cytotoxicity of the compounds and paclitaxel (as a positive control group) was detected using the MTT method (thiazolyl blue tetrazolium bromide, Sigma-M2128). Absorbance values at 570 and 620 nm (OD = OD570–OD620) were measured using an ELISA reader (Anthos Labtec Instruments, Salzburg, Austria).

CCD-966SK = test: MTT cell proliferation assay, CCD-966SK; details: CCD966SK skin fibroblast; 10 µM; 72 h MTT
Experimental: as §1

c1ccc(CNc2ncnc3sc4c(c23)CCCCC4)cc1 [B]
IC50 (PDE5): 0.19 µM

c1ccc(CNc2ncnc3sc4c(c23)CCC4)cc1 [C]
IC50 (PDE5): 0.42 µM

c1csc(CNc2c3ccccc3nc3ccccc23)c1 [Compound 15, Acridin-9-yl-thiophen-2-ylmethyl-amine]
IC50 (PDE5A; means ± S.D. (n = 4), read-out: PDE5 IC50): 6.43 ± 1.3 µM
inhibition at 10 µM (PDE5A; read-out: PDE5 % Inhibition at 10 μM): 58.4 ± 1.47%
melting point: 121 to 123 °C
% Inhibition at 10 µM (HCT-116): 39.65 ± 4.72%
% Inhibition at 10 µM (CCD-966SK): 11.54 ± 0.04%

N.N.[Cl][Pt][Cl] [cisplatin, reference compound]
% Inhibition at 10 µM (HCT-116): 83.00 ± 0.38%
IC50 (HCT-116; read-out: IC50 μM, 72 h MTT, means ± SD, three experiments): 3.62 ± 0.19 µM
% Inhibition at 10 µM (CCD-966SK): 38.73 ± 5.19%
